Here are results for two compounds from patent US10214491B2, “Activators and therapeutic applications thereof” (THE JOHNS HOPKINS UNIVERSITY, priority 2007, dated 2019).

Bounds are passed on as bounds.

Data set [1] has as its system normal human primary melanocytes. As to the kind of experiment: WST-1 cell viability assay, melanocytes. In kind it is cell-based. The settings on record: Homo sapiens, 72 h, Melanocyte, three days. As to the method: (§1) The effect of the compounds selected using the screening assay on the viability of several tumor cell lines as well as diploid cell lines and cell strains was studied. Cells were plated in 96-well plates at a density of 10,000 cells/100 μL/well and were incubated overnight. The following day compound dilutions ranging from 0 to 40 μM were applied to the cells in triplicate and the cells were incubated with the compounds for three days. Cell viability was assayed using the WST-1 cell proliferation reagent (Roche Diagnostics, Germany) The WST-1 reagent was diluted 1:10 in cell culture media and 100 μL of the reagent dilution was applied onto cells followed by 1 hour incubation at +37° C. The specific absorbance was measured at 450 nm and a reference absorbance was measured at 690 nm. […] Analysis for Protein Levels
For orientation: Formazan colour is commonly taken as a measure of viable cells.

Data set [2] concerns p53, Mdm2 and p21 levels in A375 melanoma cells. As to the kind of experiment: Immunoblotting and immunofluorescence for p53, Mdm2 and p21 levels. In kind it is cell-based. The settings on record: A375, 24 hours. As to the method:
To study the effect of compounds on endogenous protein levels, A375 melanoma cells were treated with the compounds for 24 hours. Cellular lysates were prepared in lysis buffer containing 0.5% NP-40 with proteinase inhibitors. Protein (20-30 μg) was separated by sodium dodecyl sulphate-polyacrylamide gel electrophoresis (SDS-PAGE) followed by transfer to PVDF membrane (Immobilon™-P, Millipore, Bedford, Mass., USA). Immunoblotting was carried out using DO-1 antibody for p53, 2A10 for Mdm2 and anti-p21 (Becton Dickinson) to detect p21, followed by secondary antibodies conjugated with horseradish peroxidase (p53) or biotin followed by streptavidin-horseradish peroxidase (Mdm2 and p21) after which proteins were detected with enhanced chemiluminescence (ECL, Amersham Life Sciences). Equal protein loading was verified using GAPDH (p9.B.88, Europa Bioproducts Ltd, UK) as a protein loading control.
Immunofluorescence staining was carried out to determine the correct localisation of p53 and to detect H2AX phosphorylation indicative of genotoxic stress. Cells were treated with the compounds and fixed in paraformaldehyde (3.5 PFA, 25 min RT). The coverslips were permeabilised in 0.5% NP-40 and blocked in 3% bovine serum albumin (BSA). p53 was detected by staining with FL-393 antibody (Santa Cruz, 1:50, 1 h at +37° C.) followed by Alexa-594 conjugated secondary antibody (Molecular Probes, 1:200, 1 h at +37° C.), phospho-H2AX was detected by staining with anti-H2AX (P-Ser-139) antibody (Upstate, 1:200 1 h at +37° C.) followed by Alexa-488 conjugated secondary antibody (Molecular Probes, 1:200, 1 h at +37° C.). Nuclei were stained with Hoechst 33342. Images were captured using the Zeiss Axioplan fluorescence microscope equipped with Zeiss AxioCam HRc CCD-camera and AxioVision 4.5 software using 40×, NA=0,75 objective, Chroma 31000, Chroma41001 and 41004 filters for Hoechst, Alexa488 and Alexa594, respectively.

For data set [3], the system named is Human intestinal endothelial cells. As to the kind of experiment: WST-1 cell viability assay, intestinal endothelial cells. In kind it is cell-based. The settings on record: Endothelial cell, 72 h, three days. As for the experimental part:
as §1

The subject of the next data set is A375 melanoma (WTp53). As to the kind of experiment: WST-1 cell viability assay, A375. The class given is cell-based. The settings on record: Homo sapiens, A-375, 72 h; A375 melanoma (WTp53), three days, WST-1. As to the method: as §1
Another data set is described as follows: In vivo toxicity tests. The settings on record: mice; for toxicity by weight curves, macroscopical pathologies, hematoxylin-eosin staining of tissues: 9 doses/3 weeks. As for the experimental part:
Acute and chronic toxicity of the compounds was tested on FVB/N mice. Female mice of 4-6 weeks old were purchased from Harlan and 2 animals were used per compound dose. The mice were injected intraperitoneally with the compounds three times a week for three weeks in 30 microL DMSO. Two animals received vehicle only (=30 μL DMSO). The animals were weighed prior to injections and were monitored for any signs of toxicity, distress or unusual behaviour. The animals were sacrificed three days after receiving the final injection. The liver, kidney, spleen, small intestine and thymus were excised and fixed in 4% paraformaldehyde overnight, and processed into paraffin-blocks. Haematoxylin-eosin staining (HE staining) of the tissues was performed using standard immunohistological techniques.

Data set [4] relates to BC3-luc pleural effusion lymphoma cells. The data set is described as follows: Orthotopic xenograft model of pleural effusion lymphoma. The settings on record: NOD-SCID mice. In kind it is in vivo. As for the experimental part:
An orthotopic xenograft model of pleural effusion lymphoma was used to assess the anti-tumor activities of compounds 15, 21 and 22. Female NOD-SCID mice (Charles River, France) were injected intraperitoneally with pleural effusion lymphoma cells carrying a stable NF-kappaB regulated luciferase reporter (BC3-luc cells) (Keller et al., 2006). The tumors were allowed to establish for three days after which the mice were imaged and divided into treatment (groups 4-5 mice per group). The compound treatments were initiated on day four. The mice received 2 mg/kg (cmp21) or 20 mg/kg (cmp15 and 22) every other/third day for seven times via i.p. injections, control mice received DMSO only. The mice were imaged prior to each compound injection. Imaging was carried out with Xenogen In Vivo Imaging System (IVIS), D-luciferin (Synchem OHG, Germany) was injected intraperitoneally (100 mg/kg) 10-15 min prior to each imaging. Quantitation was done using Igor Pro Carbon analysis software, bioluminescence was quantitated and plotted as total flux within a given ROI.

The next data set relates to A375 melanoma cells. The data set is described as follows: Flow cytometry cell cycle and apoptosis analysis. The class given is cell-based. As for the experimental part:
Cell cycle analysis and cellular apoptosis was assayed with flow cytometry (LSR, Beckton Dickinson). Cells were treated with the compounds and both floating and adherent cells were harvested and fixed in 70% ethanol at −20° C. followed by staining of DNA with propidium iodide. A total of 10,000 counts were collected and data was analysed using ModFit LT 3.1 software. Cells present in sub-G1 population were regarded as apoptotic.

The next data set concerns RPMI7951 (MUTp53). As to the kind of experiment: WST-1 cell viability assay, RPMI-7951. The class given is cell-based. The settings on record: Homo sapiens, RPMI-7951, 72 h, three days. As for the experimental part: as §1
A further data set deals with WS-1 diploid fibroblast. As to the kind of experiment: WST-1 cell viability assay, WS-1. The class given is cell-based, human. The settings on record: Homo sapiens, 72 h, three days. As for the experimental part: as §1

The term IC50 denotes the concentration needed to halve the response being measured. Regarding `CN(C)CCNC(=O)c1cccn2c(=O)c3cc4ccccc4cc3nc12` [Compound 21], the IC50 in data set [1] is > 40 µM; in data set [3] it was 2.7 µM; with A375 melanoma (WTp53), 0.7 µM; in the data set with RPMI7951 (MUTp53) it was 3 µM; in the data set on WS-1 diploid fibroblast it was 1.9 µM. In [2] (0.5 μM), the Mdm2 induction result is listed as “most prominent”. In data set [2] (0.5 μM), the “induction of p21 cyclin kinase inhibitor” value was “most prominent”. The “acute or chronic toxicities based on histological HE-stainings” value in the data set “In vivo toxicity tests” (i.p., 0.5, 1, 2 mg/kg three times a week for three weeks) is “No acute or chronic toxicities were observed”. In addition, the “toxicity by weight curves, macroscopical pathologies, hematoxylin-eosin staining of tissues” value in “In vivo toxicity tests” (i.p., 0.5, 1, 2 mg/kg) is reported as “did not show any apparent toxicity”. The “inhibition of tumor cell growth (bioluminescence)” value in [4] (2 mg/kg i.p. seven times) is “did not have any effect”. The “cell cycle / apoptosis phenotype” value in the data set with A375 melanoma cells (A375, 0.1 μM (three days) and 0.5 μM (six days)) was “G2-phase arrest and apoptosis”.
As for `Cc1cc(C)c2nc3nc(C)cc(C)c3c(N)c2c1` [Compound 22, 2,4,7,9-tetramethylbenzo[b]-1,8-naphthyridin-5-amine], the IC50 in data set [1] was determined as 32.2 µM; in data set [3], 14.5 µM; with A375 melanoma (WTp53), 4.6 µM; in the data set with RPMI7951 (MUTp53), 13.3 µM; with WS-1 diploid fibroblast, 11.5 µM. The Mdm2 induction result in data set [2] (5 μM) is recorded as “most prominent”. For the same compound, the “acute or chronic toxicities based on histological HE-stainings” value in “In vivo toxicity tests” (i.p., 5, 10 and 20 mg/kg three times a week for three weeks) is “No acute or chronic toxicities were observed”. Further, in “In vivo toxicity tests” (i.p., 5, 10 and 20 mg/kg), the “toxicity by weight curves, macroscopical pathologies, hematoxylin-eosin staining of tissues” value was “did not show any apparent toxicity”. Further, the “inhibition of tumor cell growth (bioluminescence)” value in [4] (20 mg/kg i.p. seven times) is reported as “noticeable inhibition of the tumor cell growth”. In the data set on A375 melanoma cells (A375, three days at 10 μM or six days at 5 μM), the “cell cycle / apoptosis phenotype” value is “G2-phase arrest and apoptosis”.
